Measured values published in patent US11096931B2, “Amide derivatives useful in the treatment of HBV infection or HBV-induced diseases” (Janssen Sciences Ireland Unlimited Company, priority 2019, dated 2021).
In brackets after ≈: the same amount, converted by molar mass. Several values for one entry are separate records, joined by “and”; a condition that tells them apart may be missing. Identical values can stand only once. Like-named read-outs stand apart in the source and are kept apart here.

Assays:
HBV = assay: anti HBV activity, HepG2.117 cell line, intracellular HBV DNA by real-time PCR; assay type: cell-based, hepatitis B virus; conditions: Hepatitis B virus, 72 h; mean value; HepG2.117 cells, 3 days of treatment, intracellular HBV DNA; read-out: HBV-AVE-HepG2.117_intra_EC50
Procedure: The anti HBV activity was measured using the HepG2.117 cell line, a stable, inducible HBV producing cell line, which replicates HBV in the absence of doxicycline (Tet-off system). The HepG2 cell line is available from ATCC® under number HB-8065. Transfection of the HepG2 cell line can be as described in Sun and Nassal 2006 Journal of Hepatology 45 (2006) 636-645 “Stable HepG2-and Huh7-based human hepatoma cell lines for efficient regulated expression of infectious hepatitis B virus”.
For the antiviral assay, HBV replication was induced, followed by a treatment with serially diluted compound in 96-well plates. After 3 days of treatment, the antiviral activity was determined by quantification of intracellular HBV DNA using real-time PCR and an HBV specific primer set and probe.

[1] = Cytotoxicity, ATPlite cell viability; assay type: cell-based; conditions: human, mean value, HepG2 or HepG2.117 cells
Procedure: Cytotoxicity of the compounds was tested using HepG2 or HepG2.117 cells, incubated for 4 days in the presence of compounds. The viability of the cells was assessed using the Perkin Elmer ATPlite Luminescence Assay System.”

[2] = Pharmacokinetics assessment in mice; assay type: in vivo, C57BL mice; conditions: mouse; for clearance / AUC(0-t) / Cmax: male, C57BL, plasma; for clearance: IV (PEG400) 2.5 mg/kg
Procedure: The pharmacokinetic profile was evaluated in fed male C57BL mice (n=3/group). Mice were i.v. injected with test compound at 2.5 mg/kg, formulated as solution in PEG400/water (70/30), and blood samples were collected from the dorsal metatarsal vein at 0.05, 0.117, 0.333, 1, 2, 4, 7, and 24 hours into EDTA-containing microcentrifuge tubes. Test compound was administered p.o. at 10 mg/kg and 50 mg/kg, formulated as solution in PEG400, and blood samples were collected from the dorsal metatarsal vein at 0.5, 1, 2, 4, 7, 12 and 24 hours into EDTA-containing microcentrifuge tubes. The blood samples were immediately centrifuged at 4° C. and the plasma was stored at −80° C. Compound concentrations from the plasma samples were analyzed using LC-MS/MS (LCMS-8050 instrument). Individual plasma concentration-time profiles were subjected to a non-compartmental pharmacokinetic analysis (NCA) using Phoenix™ WinNonlin version 6.1. (Certara, N.J., USA).

HT EQ solubility assay = assay type: physicochemical; conditions: read-out: HtEq Sol; for solubility thermodynamic at 24 h: stirred 24 h
Procedure: The assay was run in triplicate and was semi-automated using the Tecan Fluent for all liquid handling. 20 μL of 10 mM stock solution was dispensed in a 500 μL 96 well plate. DMSO was evaporated (Genevac). A stir bar and 400 μL of buffer/biorelevant media was added. The solution was stirred for 72 h (pH2 and pH7) or 24 h (FaSSIF and FeSSIF). The solution was filtered and the filtrate was quantified by UPLC/UV using a three-points calibration curve.

[3] = Thermodynamic solubility assay; assay type: physicochemical; conditions: organic solvent or mixture, thermodynamic from solid; thermodynamic solubility in PEG400
Procedure: To x mg of compound 500 μL of solvent was added (max. conc. y mg/mL). After 24 h/72 h shaking/stirring the solutions were filtered (0.45 μm membrane) and the pH was recorded. The filtrate was diluted to a maximum conc. of 100 μg/mL (CH3CN/0.1N HCl 1/1) and the samples were quantified by LC/UV. Calibration standards were 100 μg/mL, 10 μg/mL and 1 μg/mL.

[4] = buffer pH 2, aqueous buffer, thermodynamic from solid, pH = 2, stirred 72 h
[5] = buffer pH 7, aqueous buffer, thermodynamic from solid, pH = 7, stirred 72 h
[6] = thermodynamic from solid, Fessif
[7] = thermodynamic from solid, fassif

In the case of `Cc1c(C(=O)C(=O)NC2(c3cn[nH]n3)CC(F)(F)C2)cn(C)c1C(=O)Nc1ccc(F)c(Cl)c1` [Compound 13], the EC50 (HBV) is reported as 3 nM, the CC50 at 4 days [1] is reported as 26800 nM and the clearance [2] is reported as 10.2 mL/min/kg. For the same compound, the AUC(0-t) ([2]; PO (PEG400) 10 mg/kg) was 12500 ng·h/mL, the Cmax ([2]; PO (PEG400) 10 mg/kg) was 2480 ng/mL and the F ([2]; PO (PEG400) 10 mg/kg) was 77.3 +/− 19.8%. The F ([2]; PO (PEG400) 50 mg/kg) was 121 +/− 50%, the solubility thermodynamic at 72 h (HT EQ solubility assay; [4]) was 1.1 µM (≈ 0.544 µg/mL) and the solubility thermodynamic at 72 h (HT EQ solubility assay; [5]) was less than 0.6 µM. For the same compound, the solubility thermodynamic at 24 h (HT EQ solubility assay; [6]) was 150 µM (≈ 74.5 µg/mL), the solubility thermodynamic at 24 h (HT EQ solubility assay; [7]) was 39.8 µM (≈ 19.7 µg/mL) and the solubility [3] was greater than 36.4 mg/mL.
In the case of `Cc1c(C(=O)C(=O)NC2(c3cn[nH]n3)CC(F)(F)C2)cn(C)c1C(=O)Nc1ccc(F)c(C#N)c1` [Compound 12], the EC50 (HBV) is reported as 10 nM, the CC50 at 4 days [1] is reported as greater than 50000 nM and the solubility thermodynamic at 24 h (HT EQ solubility assay; Fessif) is reported as 41.2 µM and 25.1 µM. The solubility thermodynamic at 24 h (HT EQ solubility assay; fassif) was 10.2 µM and 5.4 µM.
For `Cc1c(C(=O)C(=O)NC2(c3c[nH]nn3)CC(F)(F)C2)c(C)n(C)c1C(=O)Nc1ccc(F)c(C#N)c1` [Compound 28], the EC50 (HBV) was 8 nM, the CC50 at 4 days [1] was greater than 50000 nM and the clearance [2] was 73.3 mL/min/kg. The AUC(0-t) ([2]; PO (PEG400) 10 mg/kg) was 153 ng·h/mL, the Cmax ([2]; PO (PEG400) 10 mg/kg) was 85 ng/mL and the AUC(0-t) ([2]; PO (PEG400) 50 mg/kg) was 1850 ng·h/mL. The Cmax ([2]; PO (PEG400) 50 mg/kg) was 1630 ng/mL, the F ([2]; PO (PEG400) 10 mg/kg) was 6.05 +/− 3.56% and the F ([2]; PO (PEG400) 50 mg/kg) was 14.6 +/− 12^ %. It also gave a solubility thermodynamic at 72 h (HT EQ solubility assay; [4]) of less than 5 µM, a solubility thermodynamic at 72 h (HT EQ solubility assay; [5]) of less than 5 µM and a solubility thermodynamic at 24 h (HT EQ solubility assay; [6]) of 277 µM (≈ 138 µg/mL). The solubility thermodynamic at 24 h (HT EQ solubility assay; [7]) was 46.8 µM (≈ 23.4 µg/mL) and the solubility [3] was greater than 33.9 mg/mL.
Compound `Cc1c(C(=O)C(=O)NC(C)(c2cn[nH]n2)C(F)(F)F)cn(C)c1C(=O)Nc1ccc(F)c(C#N)c1` (stereo not drawn) [Compound 51] has an EC50 (HBV) of 13 nM and a CC50 at 4 days [1] greater than 50000 nM.
In the case of `Cc1c(C(=O)C(=O)N[C@]2(c3cn[nH]n3)CCC(F)(F)C2)cn(C)c1C(=O)Nc1ccc(F)c(Cl)c1` (single isomer, unassigned) [25*R], the EC50 (HBV) is reported as 3 nM and the CC50 at 4 days [1] is reported as 18600 nM.
Work on `Cn1cc(C(=O)C(=O)N[C@H](CC(F)F)c2cn[nH]n2)cc1C(=O)Nc1ccc(F)c(C#N)c1` (single isomer, unassigned) [24*R] yielded an EC50 (HBV) of 46 nM and a CC50 at 4 days [1] of 9400 nM.
`Cc1c(C(=O)C(=O)N[C@]2(c3cn[nH]n3)C[C@@H](F)C2)cn(C)c1C(=O)Nc1ccc(F)c(C#N)c1` [Compound 57trans] showed an EC50 (HBV) of 7 nM and a CC50 at 4 days [1] greater than 50000 nM.
`Cn1cc(C(=O)C(=O)N[C@@]2(c3cn[nH]n3)CCC(F)(F)C2)cc1C(=O)Nc1ccc(F)c(C#N)c1` (single isomer, unassigned) [18*S] showed an EC50 (HBV) of 64 nM and a CC50 at 4 days [1] of 20700 nM.
`Cc1c(C(=O)C(=O)NC2(c3cn[nH]n3)CC(F)(F)C2)c(Cl)c(C(=O)Nc2ccc(F)c(C#N)c2)n1C` [Compound 23] gave an EC50 (HBV) of 4 nM and a CC50 at 4 days [1] greater than 50000 nM.
`Cn1cc(C(=O)C(=O)NC2(c3cn[nH]n3)CC(F)(F)C2)c(F)c1C(=O)Nc1ccc(F)c(C#N)c1` [Compound 5] showed an EC50 (HBV) of 10 nM and a CC50 at 4 days [1] of 11900 nM.
For `Cn1cc(C(=O)C(=O)N[C@]2(c3cn[nH]n3)CCC(F)(F)C2)cc1C(=O)Nc1ccc(F)c(C#N)c1` (single isomer, unassigned) [18*R], the EC50 (HBV) was 15 nM and the CC50 at 4 days [1] was 14100 nM.
With `Cn1cc(C(=O)C(=O)NC2(c3ccccc3)CC(F)(F)C2)cc1C(=O)Nc1ccc(F)c(C#N)c1` [Compound 36] the EC50 (HBV) was 10 nM and the CC50 at 4 days [1] was 1100 nM.
Work on `Cc1c(C(=O)C(=O)N[C@H](CC(F)(F)F)c2cn[nH]n2)cn(C)c1C(=O)Nc1ccc(F)c(Cl)c1` (single isomer, unassigned) [26*R] yielded an EC50 (HBV) of 7 nM and a CC50 at 4 days [1] greater than 50000 nM.
Compound `Cn1c(C#N)c(C(=O)C(=O)NC2(c3cn[nH]n3)CC(F)(F)C2)c(F)c1C(=O)Nc1ccc(F)c(C#N)c1` [Compound 50] has an EC50 (HBV) of 1280 nM and a CC50 at 4 days [1] greater than 50000 nM.
With `Cc1c(C(=O)C(=O)N[C@@H](CC(F)(F)F)c2cn[nH]n2)c(C)n(C)c1C(=O)Nc1ccc(F)c(C#N)c1` (single isomer, unassigned) [44*S] the EC50 (HBV) was less than 12 nM and the CC50 at 4 days [1] was greater than 50000 nM.
Compound `Cc1c(C(=O)C(=O)NC2(c3cn[nH]n3)CC(F)(F)C2)c(C#N)n(C)c1C(=O)Nc1ccc(F)c(Cl)c1` [Compound 55] has an EC50 (HBV) of 809 nM and a CC50 at 4 days [1] greater than 50000 nM.
Compound `Cc1c(C(=O)C(=O)NC2(c3cn[nH]n3)CC(F)(F)C2)c(Cl)n(C)c1C(=O)Nc1ccc(F)c(Cl)c1` [Compound 35] has an EC50 (HBV) of 4 nM and a CC50 at 4 days [1] of 5800 nM.
`Cc1c(C(=O)C(=O)NC2(c3cn[nH]n3)CC(F)(F)C2)c(Br)n(C)c1C(=O)Nc1ccc(F)c(Cl)c1` [Compound 41] showed an EC50 (HBV) of 2 nM and a CC50 at 4 days [1] of 7200 nM.
In the case of `Cn1cc(C(=O)C(=O)NC2(c3cn[nH]n3)CS(=O)(=O)C2)cc1C(=O)Nc1ccc(F)c(C#N)c1` [Compound 21], the EC50 (HBV) is reported as 1270 nM and the CC50 at 4 days [1] is reported as greater than 50000 nM.
In the case of `Cc1cc(NC(=O)c2cc(C(=O)C(=O)NCc3cn[nH]n3)cn2C)ccc1F` [Ref. 59, reference compound], the EC50 (HBV) is reported as 583 nM and the CC50 at 4 days [1] is reported as greater than 50000 nM.
Compound `Cn1cc(C(=O)C(=O)N[C@]2(c3cn[nH]n3)C[C@H]2C(F)F)cc1C(=O)Nc1ccc(F)c(C#N)c1` (single isomer, unassigned) [27*S*S] has an EC50 (HBV) of 92 nM and a CC50 at 4 days [1] greater than 50000 nM.
